The source made the active and inactive calls. The rule behind the calls is not given here.
Legend:
[1] = Induction of singlet oxygen generation in cell free condition upon 635 nm semiconductor laser light irradiation by singlet oxygen sensor green dye based fluorescence spectrophotometeric analysis; type: functional
[2] = tested on: 4T1; experiment: Phototoxicity against mouse 4T1 cells assessed as cell viability at 5 uM preincubated for 4 hrs followed by 0.5 to 2 J/cm2 light irradiation and measured after 24 hrs by MTT assay; type: functional, cell-based
[3] = tested on: MDA-MB-231; experiment: Phototoxicity against human MDA-MB-231 cells assessed as cell viability at 5 uM preincubated for 4 hrs followed by 0.5 to 2 J/cm2 light irradiation and measured after 24 hrs by MTT assay; type: functional, cell-based
[4] = tested on: MCF7; experiment: Phototoxicity against human MCF7 cells assessed as cell viability at 5 uM preincubated for 4 hrs followed by 0.5 to 2 J/cm2 light irradiation and measured after 24 hrs by MTT assay; type: functional, cell-based
[5] = Dark toxicity against mouse 4T1 cells assessed as cell viability at 5 uM after 24 hrs by MTT assay; type: cell-based; conditions: 4t1, 24 h
[6] = Dark toxicity against human MDA-MB-231 cells assessed as cell viability at 5 uM after 24 hrs by MTT assay; type: cell-based; conditions: mda-mb-231, 24 h
[7] = Dark toxicity against human MCF7 cells assessed as cell viability at 5 uM after 24 hrs by MTT assay; type: cell-based; conditions: mcf7, 24 h
[8] = Selectivity index, ratio of dark toxicity against human MDA-MB-231 cells at 5 uM to phototoxicity against human MDA-MB-231 cells at 5 uM; type: cell-based; conditions: read-out: Selectivity Index
[9] = Selectivity index, ratio of dark toxicity against mouse 4T1 cells at 5 uM to phototoxicity against mouse 4T1 cells at 5 uM; type: cell-based; conditions: read-out: Selectivity Index
[10] = Selectivity index, ratio of dark toxicity against human MCF7 at 5 uM cells to phototoxicity against human MCF7 cells at 5 uM; type: cell-based; conditions: read-out: Selectivity Index
[11] = Drug uptake in human MDA-MB-231 cells up to 10 uM after 4 hrs by flow cytometric analysis; type: ADME, cell-based; conditions: mda-mb-231, 4 h
[12] = Drug uptake in human MDA-MB-231 cells at 5 to 10 uM after 4 hrs by fluorescence microscopic analysis; type: ADME, cell-based; conditions: mda-mb-231, 4 h
[13] = Drug uptake in kidney of BALB/c mouse xenografted with mouse 4T1 cells at 10 mg/kg, iv measured at 12 hrs post injection by IVIS spectrum imaging; type: ADME, organism-based; conditions: in vivo
[14] = Drug uptake in lung of BALB/c mouse xenografted with mouse 4T1 cells at 10 mg/kg, iv measured at 12 hrs post injection by IVIS spectrum imaging; type: ADME, organism-based; conditions: in vivo
[15] = Drug uptake in spleen of BALB/c mouse xenografted with mouse 4T1 cells at 10 mg/kg, iv measured at 12 hrs post injection by IVIS spectrum imaging; type: ADME, organism-based; conditions: in vivo
[16] = Drug uptake in heart of BALB/c mouse xenografted with mouse 4T1 cells at 10 mg/kg, iv measured at 12 hrs post injection by IVIS spectrum imaging; type: ADME, organism-based; conditions: in vivo
[17] = Drug uptake in mitochondria of human MDA-MB-231 cells after 4 hrs by Mito tracker green-based confocal laser scanning microscopic analysis; type: ADME; conditions: mda-mb-231, 4 h
[18] = Drug uptake in tumor of BALB/c mouse xenografted with mouse 4T1 cells at 10 mg/kg, iv measured at 12 hrs post injection by IVIS spectrum imaging; type: ADME, organism-based, Neoplasm; conditions: in vivo
[19] = tested on: MDA-MB-231; experiment: Induction of ROS generation in human MDA-MB-231 cells incubated with DCF-DA probe for 30 mins by flow cytometric analysis (reference value: 4.38%); type: cell-based; conditions: mda-mb-231, 0.5 h
[20] = tested on: MDA-MB-231; experiment: Induction of ROS generation in human MDA-MB-231 cells incubated with DCF-DA probe for 30 mins followed by 2 J/cm2 light irradiation and measured after 1 hr by flow cytometric analysis (reference value: 4.38%); type: functional
[21] = Drug uptake in tumor of BALB/c mouse xenografted with mouse 4T1 cells at 10 mg/kg, iv measured up to 3 to 24 hrs post injection by fluorescence assay; type: ADME, organism-based, Neoplasm; conditions: in vivo
[22] = tested on: MDA-MB-231; experiment: Induction of ROS generation in human MDA-MB-231 cells incubated with DCF-DA probe for 30 mins prior to ROS scavenger NAC addition 1 hr before 2 J/cm2 light irradiation and measured after 1 hr post irradiation by flow cytometric analysis; type: functional, cell-based
[23] = Tmax in tumor of BALB/c mouse xenografted with mouse 4T1 cells at 10 mg/kg, iv measured after […] by fluorescence assay; type: ADME, organism-based, Neoplasm
[24] = tested on: MDA-MB-231; experiment: Induction of apoptosis in human MDA-MB-231 cells assessed as early apoptotic cells after 24 hrs by Annexin-V FITC/propidium iodide staining based flow cytometric analysis (reference value: 1.22%); type: cell-based; conditions: mda-mb-231, 24 h
[25] = tested on: MDA-MB-231; experiment: Induction of apoptosis in human MDA-MB-231 cells assessed as late apoptotic cells after 24 hrs by Annexin-V FITC/propidium iodide staining based flow cytometric analysis (reference value: 1.28%); type: cell-based; conditions: mda-mb-231, 24 h
[26] = tested on: MDA-MB-231; experiment: Induction of apoptosis in human MDA-MB-231 cells assessed as necrotic cells after 24 hrs by Annexin-V FITC/propidium iodide staining based flow cytometric analysis (reference value: 4.24%); type: cell-based; conditions: mda-mb-231, 24 h
[27] = Induction of apoptosis in human MDA-MB-231 cells assessed as viable cells after 24 hrs by Annexin-V FITC/propidium iodide staining based flow cytometric analysis (reference value: 93.27%); type: cell-based; conditions: read-out: Activity
[28] = tested on: MDA-MB-231; experiment: Induction of apoptosis in human MDA-MB-231 cells assessed as early apoptotic cells after 24 hrs upon light irradiation by Annexin-V FITC/propidium iodide staining based flow cytometric analysis (reference value: 1.22%); type: functional
[29] = tested on: MDA-MB-231; experiment: Induction of apoptosis in human MDA-MB-231 cells assessed as late apoptotic cells after 24 hrs upon light irradiation by Annexin-V FITC/propidium iodide staining based flow cytometric analysis (reference value: 1.28%); type: functional
[30] = tested on: MDA-MB-231; experiment: Induction of apoptosis in human MDA-MB-231 cells assessed as necrotic cells after 24 hrs upon light irradiation by Annexin-V FITC/propidium iodide staining based flow cytometric analysis (reference value: 4.24%); type: functional
[31] = tested on: MDA-MB-231; experiment: Induction of apoptosis in human MDA-MB-231 cells assessed as viable cells after 24 hrs upon light irradiation by Annexin-V FITC/propidium iodide staining based flow cytometric analysis (reference value: 93.27%); type: functional
[32] = tested on: 4T1; experiment: Antitumor activity against mouse 4T1 cells xenografted in BALB/c mouse assessed as tumor growth inhibition at 4 mg/kg, iv pretreated for 24 hrs followed by 50 J/cm2 light irradiation and measured at day 22 post last dose; type: functional, organism-based
[33] = tested on: 4T1; experiment: Induction of apoptosis in mouse 4T1 cells xenografted in BALB/c mouse at 4 mg/kg, iv pretreated for 24 hrs followed by 50 J/cm2 light irradiation by TUNEL assay; type: functional, organism-based
[34] = tested on: Mus musculus; experiment: Toxicity in BALB/c mouse xenografted with mouse 4T1 cells assessed as effect on body weight at 4 mg/kg, iv measured at day 22 post last dose; type: organism-based; conditions: in vivo
[35] = tested on: Mus musculus; experiment: Toxicity in BALB/c mouse xenografted with mouse 4T1 cells assessed as effect on body weight at 4 mg/kg, iv pre-tretaed for 24 hrs followed by 50 J/cm2 light irradiation and measured at day 22 post dose; type: organism-based; conditions: in vivo
[36] = tested on: Mus musculus; experiment: Hepatotoxicity in BALB/c mouse xenografted with mouse 4T1 cells assessed as pathological changes in liver at 4 mg/kg, iv pre-tretaed for 24 hrs followed by 50 J/cm2 light irradiation and measured at day 22 post dose by hematoxylin and eosin staining based light microscopic analysis; type: toxicity, organism-based; conditions: in vivo
[37] = tested on: Mus musculus; experiment: Nephrotoxicity in BALB/c mouse xenografted with mouse 4T1 cells assessed as pathological changes in kidney at 4 mg/kg, iv pre-tretaed for 24 hrs followed by 50 J/cm2 light irradiation and measured at day 22 post dose by hematoxylin and eosin staining based light microscopic analysis; type: toxicity, organism-based; conditions: in vivo
[38] = tested on: Mus musculus; experiment: Toxicity in BALB/c mouse xenografted with mouse 4T1 cells assessed as pathological changes in spleen at 4 mg/kg, iv pre-tretaed for 24 hrs followed by 50 J/cm2 light irradiation and measured at day 22 post dose by hematoxylin and eosin staining based light microscopic analysis; type: organism-based; conditions: in vivo
[39] = tested on: Mus musculus; experiment: Toxicity in BALB/c mouse xenografted with mouse 4T1 cells assessed as pathological changes in lung at 4 mg/kg, iv pre-tretaed for 24 hrs followed by 50 J/cm2 light irradiation and measured at day 22 post dose by hematoxylin and eosin staining based light microscopic analysis; type: organism-based; conditions: in vivo

## COC(C)C1=C(C)c2cc3[nH]c(cc4nc(cc5[nH]c(cc1n2)c(C)c5CCC(=O)O)C(CCC(=O)O)=C4C)c(C)c3C(C)O (centres undefined)
[1]
  Activity: Dose-dependent effect
[2]
  Activity: Active
[3]
  Activity: Active
[4]
  Activity: Active
[5]
  Activity: Non-Toxic
[6]
  Activity: Non-Toxic
[7]
  Activity: Non-Toxic
[8]
  selectivity ratio at 5 µM: 18.8
[9]
  selectivity ratio at 5 µM: 12
[10]
  selectivity ratio at 5 µM: 16.8
[11]
  Drug uptake: Not Active
[12]
  Drug uptake: Not Active
[13]
  Drug uptake: Not Active
[14]
  Drug uptake: Not Active
[15]
  Drug uptake: Not Active
[16]
  Drug uptake: Not Active
[17]
  Drug uptake: Active
[18]
  Drug uptake: Active
[19]
  Activity: 5.7%
[20]
  Activity: 25.13%
[21]
  Drug uptake: Active
[22]
  Activity: inactive
[23]
  Tmax: 12 h
[24]
  Activity: 1.99%
[25]
  Activity: 1.76%
[26]
  Activity: 4.02%
[27]
  viability at 24 h: 92.2%
[28]
  Activity: 3.91%
[29]
  Activity: 30.5%
[30]
  Activity: 6.83%
[31]
  Activity: 58.77%
[32]
  TGI: inactive
[33]
  Activity: Active
[34]
  Activity: Non-Toxic
[35]
  Activity: Non-Toxic
[36]
  Activity: Non-Toxic
[37]
  Activity: Non-Toxic
[38]
  Activity: Non-Toxic
[39]
  Activity: Non-Toxic

— ChEMBL document CHEMBL4229478, “Synthesis, Characterization, and Biological Evaluation of a Porphyrin-Based Photosensitizer and Its Isomer for Effective Photodynamic Therapy against Breast Cancer” (J Med Chem, 2018)
